In brackets after ≈: the same amount, converted by molar mass.

One data set is described as follows: Caco-2 A-B permeability. The data set is classed as in vitro ADME. The following applies: human, pH 6.5–7.4, test concentration = MIC against H. pylori (19-50 μM), reference drugs 10 μM. The procedure:
The apparent permeability coefficient (Papp) of the test compound was calculated as follows: Papp(cm/s)=VR*CR,end/Δt*1/A*(CD,mid‐CR,mid) where VR is the volume of the receiver chamber. CR,end is the concentration of the test compound in the receiver chamber at the end time point, Δt is the incubation time and A is the surface area of the cell monolayer. CD,mid is the calculated mid-point concentration of the test compound in the donor side, which is the mean value of the donor concentration at time 0 minute and the donor concentration at the end time point. CR,mid is the mid-point concentration of the test compound in the receiver side, which is one half of the receiver concentration at the end time point. Concentrations of the test compound were expressed as peak areas of the test compound.
The recovery of the test compound was calculated as follows: Recovery(%)=VD*CD,end+VR*CR,end/VD*CD0*100 where VD and VR are the volumes of the donor and receiver chambers, respectively. CD,end is the concentration of the test compound in the donor sample at the end time point. CR,end is the concentration of the test compound in the receiver sample at the end time point. CD0 is the concentration of the test compound in the donor sample at time zero. Concentrations of the test compound are expressed as peak areas of the test compound.
Fluorescein was used as the cell monolayer integrity marker. Fluorescein permeability assessment (in the A-B direction at pH 7.4 on both sides) was executed after the permeability assay for the test compound.
Background: Caco-2 monolayers are a common model of the intestinal barrier.

In data set [1] the test system is H. pylori. Nature of the data set: MIC against H. pylori, agar dilution method. In kind it is cell-based, Helicobacter pylori. As to conditions: Helicobacter pylori, ATCC43504; H. pylori ATCC 43504, agar dilution; read-out: MIC value against H. pylori ± SEM.
The next data set addresses T1, Jack bean urease (Canavalia ensiformis, UniProt P07374).
T1 construct: purchased Sigma Aldrich
Nature of the data set: biochemical. The data set is classed as biochemical. The method, then:
Reaction mixture comprising 40 μL of buffer (K2HPO4: 10 mmol/L, urea: 100 mmol/L, […]: 10 mmol/L, EDTA: 1 /L mmol, pH = 8.2) and 5 U/mL enzyme (10 μL) were pre-incubated with 10 μL of synthesized compounds (1 mM) and substrate urea (1 mM) were incubated at room temperature in 96 well plate for half an hour. After the incubation at room temperature, absorbance was taken at specific wavelength (630 nm) employing a microplate reader (Bio-Tek, USA) with R1 and R2 reagents in each well. The reactions were measured in triplicate fashion. To calculate the inhibition percentage following equation was used.
Percentage inhibition = 100 –[tested compound/control compound] × 100.

Data set [2] deals with H. pylori. Nature of the data set: IC50 against H. pylori, micro broth dilution test. In kind it is cell-based, Helicobacter pylori. As to conditions: Helicobacter pylori, ATCC43504; H. pylori ATCC 43504, micro broth dilution, 72 h, OD 600 nm; read-out: IC50 value against H. pylori ± SEM.

T1 sequence (P07374 whole entry, looked up): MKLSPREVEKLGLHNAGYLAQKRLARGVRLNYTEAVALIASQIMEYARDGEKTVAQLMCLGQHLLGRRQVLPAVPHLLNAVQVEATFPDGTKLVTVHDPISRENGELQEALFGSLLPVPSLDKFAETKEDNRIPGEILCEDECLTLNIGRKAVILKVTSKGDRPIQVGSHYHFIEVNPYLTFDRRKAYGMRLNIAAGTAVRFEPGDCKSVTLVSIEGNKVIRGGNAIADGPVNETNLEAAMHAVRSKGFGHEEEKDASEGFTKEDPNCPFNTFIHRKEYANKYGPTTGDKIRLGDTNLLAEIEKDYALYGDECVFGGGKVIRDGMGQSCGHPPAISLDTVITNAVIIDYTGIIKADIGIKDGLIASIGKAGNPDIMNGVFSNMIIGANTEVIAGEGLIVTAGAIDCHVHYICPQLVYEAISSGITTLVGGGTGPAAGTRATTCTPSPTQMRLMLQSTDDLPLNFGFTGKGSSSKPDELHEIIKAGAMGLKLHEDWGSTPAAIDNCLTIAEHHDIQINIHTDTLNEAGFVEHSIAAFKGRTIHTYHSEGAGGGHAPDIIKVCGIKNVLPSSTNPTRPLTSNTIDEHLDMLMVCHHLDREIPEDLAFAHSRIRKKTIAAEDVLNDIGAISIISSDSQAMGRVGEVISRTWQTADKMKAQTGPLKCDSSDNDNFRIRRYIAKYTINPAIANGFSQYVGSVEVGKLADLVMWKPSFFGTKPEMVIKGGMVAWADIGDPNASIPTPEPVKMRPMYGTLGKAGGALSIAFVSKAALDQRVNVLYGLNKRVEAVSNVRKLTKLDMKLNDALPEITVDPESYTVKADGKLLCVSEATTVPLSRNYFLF

In the case of `CC(CCc1ccccc1)NCC(O)c1ccc(O)c(C(N)=O)c1` (centres unmarked) [Labetalol, reference compound], in “Caco-2 A-B permeability”, the Papp came to 19.2 ± 0.56 ×10⁻⁶ cm/s and the recovery came to 99.1%.

In “Caco-2 A-B permeability”, `CC(C)NCC(O)COc1cccc2ccccc12` (centres unmarked) [Propranolol, reference compound] gave a Papp of 39 ± 0.44 ×10⁻⁶ cm/s and a recovery of 88.7%.

Consider `Cc1ccc(S(=O)(=O)Oc2cccc(-c3nc4sccn4c3-c3cccc(S(C)(=O)=O)c3)c2)cc1` [Compound 2g, 3-(5-(3-(Methylsulfonyl)phenyl)imidazo[2,1-b]thiazol-6-yl)phenyl 4-methylbenzenesulfonate], for which the melting point is 172 to 174 °C. Moreover, the MIC with H. pylori [1] was 275 ± 125 µM (≈ 144 µg/mL). The half-inhibitory concentration (IC50) against Jack bean urease amounted to 5.59 ± 0.04 µM. The IC50 with H. pylori [2] was 103 ± 88 µM.

For the compound `CNS(=O)(=O)Oc1cccc(-c2nc3sccn3c2-c2cccc(S(C)(=O)=O)c2)c1` [Compound 2i, 3-(5-(3-(Methylsulfonyl)phenyl)imidazo[2,1-b]thiazol-6-yl)phenyl methylsulfamate], the melting point is over 250 °C. For the same compound, in the data set on H. pylori [1], the minimum inhibitory concentration (MIC) is 250 ± 50 µM (≈ 116 µg/mL). The compound also showed an IC50 against Jack bean urease of 4.74 ± 0.21 µM. Besides, in the data set on H. pylori [2], the IC50 was found to be 123 ± 15 µM.

`CCS(=O)(=O)Oc1cccc(-c2nc3sccn3c2-c2ccccc2)c1` [Compound 1b, 3-(5-Phenylimidazo[2,1-b]thiazol-6-yl)phenyl ethanesulfonate] came in with a melting point of 119 to 121 °C. The minimum inhibitory concentration (MIC) in the data set on H. pylori [1] came to 800 µM. At Jack bean urease, this compound yielded an IC50 of 4.01 ± 0.11 µM. Also, the IC50 in the data set on H. pylori [2] came out at 82 ± 29 µM.

As to `O=S(=O)(Oc1cccc(-c2nc3sccn3c2-c2ccccc2)c1)N1CCCCC1` [Compound 1j, 3-(5-Phenylimidazo[2,1-b]thiazol-6-yl)phenyl piperidine-1-sulfonate], the melting point is 112 to 115 °C. For the same compound, the minimal inhibitory concentration (MIC) in the data set with H. pylori [1] is 200 µM (≈ 87.9 µg/mL). On Jack bean urease, this compound registered a half-maximal inhibitory concentration (IC50) of 6.97 ± 0.09 µM. Also, in the data set with H. pylori [2], the concentration for half-maximal inhibition (IC50) amounted to 131 ± 2 µM.

`CS(=O)(=O)c1cccc(-c2c(-c3cccc(OS(=O)(=O)N4CCCCC4)c3)nc3sccn23)c1` [Compound 2j, 3-(5-(3-(Methylsulfonyl)phenyl)imidazo[2,1-b]thiazol-6-yl)phenyl piperidine-1-sulfonate]: the melting point fell in the range of 76 to 79 °C. Further, the MIC in the data set with H. pylori [1] was found to be 800 µM (≈ 414 µg/mL). The compound further came in with an IC50 at Jack bean urease of 5.82 ± 0.02 µM. Besides, the IC50 with H. pylori [2] came to 288 ± 18 µM.

As to `Cc1ccc(S(=O)(=O)Oc2cccc(-c3nc4sccn4c3-c3ccccc3)c2)cc1` [Compound 1g, 3-(5-Phenylimidazo[2,1-b]thiazol-6-yl)phenyl 4-methylbenzenesulfonate], the melting point is 103 to 106 °C. Besides, the minimal inhibitory concentration (MIC) with H. pylori [1] was found to be 150 ± 29 µM (≈ 67 µg/mL). Besides, at Jack bean urease, inhibition was half-maximal at 3.22 ± 0.06 µM (IC50). Also, the IC50 with H. pylori [2] was 37 ± 6 µM.

`CS(=O)(=O)c1cccc(-c2c(-c3cccc(OS(N)(=O)=O)c3)nc3sccn23)c1` [Compound 2h, 3-(5-(3-(Methylsulfonyl)phenyl)imidazo[2,1-b]thiazol-6-yl)phenyl sulfamate] came in with a melting point of 150 to 153 °C. The MIC in the data set on H. pylori [1] turned out to be 400 µM (≈ 180 µg/mL). In addition, it took 4.72 ± 0.13 µM to reach half-maximal inhibition against Jack bean urease (IC50). Besides, the IC50 in the data set on H. pylori [2] is 225 ± 5 µM.

In general, Papp refers to the rate of passage across a membrane or cell layer, normalised by area and donor concentration. Usually MIC stands for the least concentration at which growth counts as inhibited. Broadly, the IC50 is the point on the concentration scale where inhibition reaches its midpoint. A word on the melting point: it is the temperature of the solid-liquid transition.

The values are drawn from article PMC10237672, “Design and synthesis of novel anti-urease imidazothiazole derivatives with promising antibacterial activity against Helicobacter pylori” (PLOS ONE, 2023).
